In PubChem BioAssay AID256 (DTP/NCI, 2004):
“And” between values parts separate entries of the source, which are not always exact repeats. Equal entries are not always repeated. Inconclusive results and toxic doses are left out.

Tested on: CD2F1 mice, L1210 leukemia ip, survival T/C
Assay: NCI In Vivo Anticancer Drug Screen. Data for tumor model L1210 Leukemia (intraperitoneal) in CD2F1 (CDF1) mice
Conditions: higher = longer survival
How it was run: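 Compound-dosed mice with transplantable tumor versus matched vehicle controls; endpoint ratio T/C reported.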

[1] = endpoint: mean survival time, dose: 100.0 mg/kg/injection, schedule: Q01DX009 (ip), vehicle: saline with Tween-80
[2] = endpoint: mean survival time, dose: 200.0 mg/kg/injection, schedule: Q01DX009 (ip), vehicle: saline with Tween-80
[3] = endpoint: mean survival time, dose: 400.0 mg/kg/injection, schedule: Q01DX009 (ip), vehicle: saline with Tween-80
[4] = endpoint: mean survival time, dose: 100.0 mg/kg/injection, schedule: Q04DX003 (ip), vehicle: saline with Tween-80
[5] = endpoint: mean survival time, dose: 200.0 mg/kg/injection, schedule: Q04DX003 (ip), vehicle: saline with Tween-80
[6] = endpoint: mean survival time, dose: 400.0 mg/kg/injection, schedule: Q04DX003 (ip), vehicle: saline with Tween-80
[7] = endpoint: mean survival time, dose: 50.0 mg/kg/injection, schedule: Q01DX009 (ip), vehicle: saline with Tween-80
[8] = endpoint: mean survival time, dose: 200.0 mg/kg/injection, schedule: Q01DX009 (ip), vehicle: saline

CCOC(=O)NC(CCl)C(=O)OC (configuration not stated)
T/C [1]: 104 % of control
T/C [2]: 98 % of control
T/C [3]: 98 % of control

Cc1cc(=O)cc(CC(=O)C(=O)O)o1
T/C (endpoint: mean survival time, dose: 100.0 mg/kg/injection, schedule: Q01DX009 (ip), vehicle: saline sonified): 101 % of control
T/C [4]: 97 % of control
T/C [5]: 95 % of control
T/C [6]: 97 % of control

CCOC(=O)C1(c2ccccc2)C(=O)Oc2ccccc21 (configuration not stated)
T/C (endpoint: mean survival time, dose: 12.5 mg/kg/injection, schedule: Q01DX009 (ip), vehicle: saline with Tween-80): 98 % of control
T/C (endpoint: mean survival time, dose: 25.0 mg/kg/injection, schedule: Q01DX009 (ip), vehicle: saline with Tween-80): 94 % of control and 96 % of control
T/C [7]: 89 % of control and 104 % of control
T/C [1]: 89 % of control and 93 % of control
T/C [2]: 89 % of control
T/C [3]: 87 % of control and 91 % of control

O=c1[nH][nH]c2nccnc12
T/C (endpoint: mean survival time, dose: 12.5 mg/kg/injection, schedule: Q01DX005 (ip), vehicle: water): 93 % of control
T/C (endpoint: mean survival time, dose: 25.0 mg/kg/injection, schedule: Q01DX005 (ip), vehicle: water): 93 % of control
T/C (endpoint: mean survival time, dose: 50.0 mg/kg/injection, schedule: Q01DX005 (ip), vehicle: water): 96 % of control
T/C (endpoint: mean survival time, dose: 100.0 mg/kg/injection, schedule: Q01DX005 (ip), vehicle: water): 98 % of control
T/C (endpoint: mean survival time, dose: 200.0 mg/kg/injection, schedule: Q01DX005 (ip), vehicle: water): 101 % of control

CC(C)CN1CCOCC1
T/C [7]: 95 % of control
T/C [1]: 97 % of control
T/C [4]: 107 % of control
T/C [5]: 98 % of control

c1ccc(C2CC([P+](c3ccccc3)(c3ccccc3)c3ccccc3)=NN2CC[P+](c2ccccc2)(c2ccccc2)c2ccccc2)cc1 (configuration not stated)
T/C (endpoint: mean survival time, dose: 1.56 mg/kg/injection, schedule: Q04DX003 (ip), vehicle: saline with Tween-80): 101 % of control
T/C (endpoint: mean survival time, dose: 3.13 mg/kg/injection, schedule: Q04DX003 (ip), vehicle: saline with Tween-80): 96 % of control
T/C (endpoint: mean survival time, dose: 6.25 mg/kg/injection, schedule: Q04DX003 (ip), vehicle: saline with Tween-80): 93 % of control

O=C[C@@H](CO)O[C@H](C=O)n1cnc2c(=O)[nH]cnc21
T/C (endpoint: mean survival time, dose: 20.0 mg/kg/injection, schedule: Q01DX009 (ip), vehicle: saline): 111 % of control
T/C (endpoint: mean survival time, dose: 40.0 mg/kg/injection, schedule: Q01DX009 (ip), vehicle: saline): 115 % of control
T/C (endpoint: mean survival time, dose: 50.0 mg/kg/injection, schedule: Q04DX003 (ip), vehicle: saline): 114 % of control
T/C (endpoint: mean survival time, dose: 70.0 mg/kg/injection, schedule: Q01DX001 (ip), vehicle: saline): 110 % of control
T/C (endpoint: mean survival time, dose: 80.0 mg/kg/injection, schedule: Q01DX009 (ip), vehicle: saline): 160 % of control
T/C (endpoint: mean survival time, dose: 100.0 mg/kg/injection, schedule: Q01DX007 (ip), vehicle: saline): 156 % of control
T/C (endpoint: mean survival time, dose: 140.0 mg/kg/injection, schedule: Q01DX001 (ip), vehicle: saline): 124 % of control
T/C (endpoint: mean survival time, dose: 160.0 mg/kg/injection, schedule: Q01DX009 (ip), vehicle: saline): 177 % of control and 182 % of control
T/C (endpoint: mean survival time, dose: 200.0 mg/kg/injection, schedule: Q01DX007 (ip), vehicle: saline): 150 % of control
T/C [8]: 287 % of control
T/C (endpoint: mean survival time, dose: 200.0 mg/kg/injection, schedule: Q03DX003 (ip), vehicle: saline): 162 % of control
T/C (endpoint: mean survival time, dose: 200.0 mg/kg/injection, schedule: Q04DX003 (ip), vehicle: saline): 158 % of control
T/C (endpoint: median survival time, dose: 38.9 mg/kg/injection, schedule: Q01DX005 (ip), vehicle: saline): 122 % of control
T/C (endpoint: median survival time, dose: 39.0 mg/kg/injection, schedule: Q01DX009 (ip), vehicle: clinical formulation): 122 % of control
T/C (endpoint: median survival time, dose: 50.0 mg/kg/injection, schedule: Q01DX005 (ip), vehicle: distilled water + Tween-80): 118 % of control
T/C (endpoint: median survival time, dose: 89.0 mg/kg/injection, schedule: Q01DX009 (ip), vehicle: clinical formulation): 173 % of control
T/C (endpoint: median survival time, dose: 89.0 mg/kg/injection, schedule: Q01DX009 (ip), vehicle: sodium bicarbonate): 171 % of control
T/C (endpoint: median survival time, dose: 133.0 mg/kg/injection, schedule: Q01DX009 (ip), vehicle: clinical formulation): 105 % of control
T/C (endpoint: median survival time, dose: 133.0 mg/kg/injection, schedule: Q01DX009 (ip), vehicle: sodium bicarbonate): 163 % of control
T/C (endpoint: median survival time, dose: 180.0 mg/kg/injection, schedule: Q01DX005 (ip), vehicle: saline): 170 % of control
T/C (endpoint: median survival time, dose: 200.0 mg/kg/injection, schedule: Q01DX005 (ip), vehicle: distilled water + Tween-80): 196 % of control
T/C (endpoint: median survival time, dose: 300.0 mg/kg/injection, schedule: Q01DX005 (ip), vehicle: saline): 238 % of control

Cc1nnc(-c2cn(C3OC(CO)C(O)C3O)c3ncnc(N)c23)nc1C (configuration not stated)
T/C (endpoint: mean survival time, dose: 100.0 mg/kg/injection, schedule: Q01DX005 (ip), vehicle: saline): 97 % of control
T/C (endpoint: mean survival time, dose: 200.0 mg/kg/injection, schedule: Q01DX005 (ip), vehicle: saline): 96 % of control

O=C(O)CCCC(=O)c1ccccc1
T/C (endpoint: mean survival time, dose: 50.0 mg/kg/injection, schedule: Q01DX009 (ip), vehicle: Klucel (hydroxypropylcellulose) (HPC)): 91 % of control
T/C (endpoint: mean survival time, dose: 100.0 mg/kg/injection, schedule: Q01DX009 (ip), vehicle: Klucel (hydroxypropylcellulose) (HPC)): 91 % of control
T/C (endpoint: mean survival time, dose: 200.0 mg/kg/injection, schedule: Q01DX009 (ip), vehicle: Klucel (hydroxypropylcellulose) (HPC)): 95 % of control

O=C(c1ccc(F)cc1)c1ccccc1Cl
T/C [1]: 102 % of control
T/C [4]: 105 % of control
T/C [2]: 97 % of control
T/C [5]: 98 % of control
T/C [3]: 97 % of control
T/C [6]: 98 % of control

CCOC(=O)/C(C#N)=C\c1cccs1
T/C (endpoint: mean survival time, dose: 25.0 mg/kg/injection, schedule: Q04DX003 (ip), vehicle: Klucel (hydroxypropylcellulose) (HPC)): 96 % of control
T/C (endpoint: mean survival time, dose: 50.0 mg/kg/injection, schedule: Q04DX003 (ip), vehicle: Klucel (hydroxypropylcellulose) (HPC)): 96 % of control
T/C (endpoint: mean survival time, dose: 100.0 mg/kg/injection, schedule: Q04DX003 (ip), vehicle: Klucel (hydroxypropylcellulose) (HPC)): 107 % of control

Cc1cc2ncn(CO)c2cc1C
T/C [1]: 105 % of control
T/C [2]: 100 % of control
T/C [3]: 111 % of control

NC(CC(=O)NO)C(=O)O (configuration not stated)
T/C (endpoint: mean survival time, dose: 12.5 mg/kg/injection, schedule: Q01DX009 (ip), vehicle: saline): 95 % of control
T/C (endpoint: mean survival time, dose: 25.0 mg/kg/injection, schedule: Q01DX009 (ip), vehicle: saline): 101 % of control
T/C (endpoint: mean survival time, dose: 50.0 mg/kg/injection, schedule: Q01DX009 (ip), vehicle: saline): 101 % of control
T/C (endpoint: mean survival time, dose: 100.0 mg/kg/injection, schedule: Q01DX009 (ip), vehicle: saline): 95 % of control
T/C [8]: 111 % of control and 95 % of control
T/C (endpoint: mean survival time, dose: 400.0 mg/kg/injection, schedule: Q01DX009 (ip), vehicle: saline): 103 % of control

Cc1ccc(S(=O)(=O)NN=C(c2ccccc2)c2ccccc2)cc1
T/C (endpoint: mean survival time, dose: 25.0 mg/kg/injection, schedule: Q01DX009 (ip), vehicle: water): 101 % of control
T/C (endpoint: mean survival time, dose: 50.0 mg/kg/injection, schedule: Q01DX009 (ip), vehicle: water): 101 % of control
T/C (endpoint: mean survival time, dose: 100.0 mg/kg/injection, schedule: Q01DX009 (ip), vehicle: water): 95 % of control
T/C (endpoint: mean survival time, dose: 200.0 mg/kg/injection, schedule: Q01DX009 (ip), vehicle: water): 95 % of control

[Cl][Pt+2][Cl].[NH-]C1CC1.[NH2-]
T/C (endpoint: mean survival time, dose: 0.39 mg/kg/injection, schedule: Q04DX003 (ip), vehicle: saline): 101 % of control
T/C (endpoint: mean survival time, dose: 0.78 mg/kg/injection, schedule: Q04DX003 (ip), vehicle: saline): 103 % of control and 104 % of control
T/C (endpoint: mean survival time, dose: 1.56 mg/kg/injection, schedule: Q04DX003 (ip), vehicle: saline): 121 % of control and 108 % of control
T/C (endpoint: mean survival time, dose: 3.12 mg/kg/injection, schedule: Q04DX003 (ip), vehicle: saline with Tween-80): 124 % of control

CC1C(N2CCCCC2)CS1(=O)=O (configuration not stated)
T/C (endpoint: mean survival time, dose: 25.0 mg/kg/injection, schedule: Q04DX002 (ip), vehicle: saline): 104 % of control
T/C (endpoint: mean survival time, dose: 50.0 mg/kg/injection, schedule: Q04DX002 (ip), vehicle: saline): 101 % of control
T/C (endpoint: mean survival time, dose: 100.0 mg/kg/injection, schedule: Q04DX002 (ip), vehicle: saline): 108 % of control

N#Cc1c(NC(=S)NC2OC(COCc3ccccc3)C(OCc3ccccc3)C2OCc2ccccc2)ncn1Cc1ccccc1 (configuration not stated)
T/C (endpoint: mean survival time, dose: 50.0 mg/kg/injection, schedule: Q01DX009 (ip), vehicle: acetone): 94 % of control
T/C (endpoint: mean survival time, dose: 100.0 mg/kg/injection, schedule: Q01DX009 (ip), vehicle: acetone): 98 % of control
T/C (endpoint: mean survival time, dose: 100.0 mg/kg/injection, schedule: Q04DX003 (ip), vehicle: acetone): 91 % of control
T/C (endpoint: mean survival time, dose: 200.0 mg/kg/injection, schedule: Q01DX009 (ip), vehicle: acetone): 93 % of control
T/C (endpoint: mean survival time, dose: 200.0 mg/kg/injection, schedule: Q04DX003 (ip), vehicle: acetone): 91 % of control

CC(=O)O[C@H]1CC[C@H]2[C@@H]3CCC4=C(Cl)C(=O)CC[C@]4(C)[C@H]3CC[C@]12C
T/C [1]: 96 % of control
T/C [4]: 97 % of control
T/C [2]: 94 % of control
T/C [5]: 96 % of control
T/C [3]: 94 % of control
T/C [6]: 103 % of control
